Each block holds one compound with its values, some of them ahead of it.
What was measured:
Type in all cases: cell-based
[1] = target: T1, PLK1 (Homo sapiens, UniProt P53350); assay: Luciferase assay for PLK1 in HeLa LgBit (Plk1-HiBit KI) cell line; details: 300 nM compound, luminescence after 9 hours
T1 construct: endogenous in cells; host or cells: HeLa LgBit (Plk1-HiBit KI): HeLa stably expressing LgBit, with a CRISPR/Cas9 knock-in of HiBit at the endogenous PLK1 locus
Experimental: 2. Luciferase Assay for PLK1
(1) Preparation and Culture of HeLa LgBit (Plk1-HiBit KI) Cell Line
A HeLa cell line in which the LgBit vector was transfected and expressed stably was prepared. Then, after constructing gRNA and donor to express the HiBit amino acid sequence behind the C-terminal of the PLK1 gene, which was inherent in the cell, it was inserted into the cell together with a vector capable of expressing CRISPR/Cas9. Only the cells in which the insertion was completed and knock-in had progressed were selected, sub-cultured and used.
For cell culture, DMEM (Gibco), FBS (Gibco), PS (Gibco), […] cell culture dish (SPL), […] cell culture dish (SPL), 96-well culture plate (SPL), PBS pH 7.4 (Gibco), TrypLE™ Express (Gibco), Cell counter (Thermo Fisher Scientific) and 0.4% Trypan Blue Solution (DYNEBIO) were used.
(2) Treatment of Compounds of the Present Invention and Method of Luciferase Assay
In the case of HeLa LgBit (Plk1-HiBit KI), the compounds were treated after being released after thymidine block, and the process was as follows. Thymidine (Sigma-Aldrich) was completely dissolved in ddH2O and used in the experiment. For thymidine block, the products were treated with 2 mM of thymidine and then incubated for 24 hours. For release and chemical treatment, the medium was suctioned and washed with 1×PBS. TrypLE™ (Gibco) was added and incubated in 37° C. CO2 incubator (Thermo Fisher Scientific) for 5 mins. Cells neutralized by adding complete media were counted through a counter. For each well of a 96-well culture plate (SPL), 3.3×10^4 cells and a total medium volume of 150 μl were seeded and incubated in a CO2 incubator.
Each cell line was incubated in a CO2 incubator for 18 hours, and Endurazine (Promega, Cat. No. N257B) was added to each well to make up 4% of the total volume. After adding compounds of Examples in a 96-well white plate (SPL) to a concentration of 300 nM, the wavelength of the plate reader (BMG Labtech, CLARIOstar Plus) was set to 470-480 nm, and then the luminescence was tracked in real time.
In Table 2, Activity represents the ratio of the luminescence value of each Exemplary Compound treatment group to DMSO treatment group (+++: <0.3, ++: <0.5, +: <0.7).

[2] = system: MRC-5 cell line; assay: Cell viability assay for MRC-5 cell line (EZ-Cytox); details: Homo sapiens, MRC5, 120 h; MRC-5 normal cell line, 5 days, 10000 nM to 1.52 nM; read-out: Activity: IC50 value, cell viability, MRC-5 cell line (Exemplary Compounds)
Experimental: 4. Cell Viability Assay for MRC-5 Cell Line
(1) Culture of MRC-5 Cell Line
The MRC-5 cell line was purchased from KCLB. Passage of cultured cells was maintained within P15.
(2) Treatment of Compounds of the Present Invention
Then, it was cultured in 37° C. CO2 incubator (Thermo Fisher Scientific) for 5 days.
(3) Cytotoxicity Experiment
CO2 incubator for 4 hours.

[3] = system: NCI-H526 cell line; assay: Cell viability assay for NCI-H526 cell line (EZ-Cytox); details: Homo sapiens, NCI-H526, 120 h; H526 cells, 5 days, 3000 nM to 0.46 nM
Experimental: (§1) 3. Cell Viability Assay for NCI-H69, NCI-H526 Cell Lines
(§2) (1) Culture of NCI-H69, NCI-H526 Cell Lines
(§3) The NCI-H69 (hereafter H69) and NCI-H526 (hereafter H526) cell lines were purchased from KCLB.
(§4) (2) Treatment of Compounds of the Present Invention and Method of Cell Viability Assay
(§5) After treating the compound to each well to make the total volume of 200 μl, it was cultured in a CO2 incubator (Thermo Fisher Scientific) for 5 days. […] The absorbance of the completely cultured sample was measured by setting the wavelength of a plate reader (BMG Labtech) to […], and was measured after shaking for 3 minutes in a plate reader before measurement.
(§6) The results of cell viability for H526 and H69 cell line are shown in Table 3 and Table 4, respectively.
(§7) In Table 3 and Table 4, Activity represents IC50 value of each Exemplary Compound treatment group to H526 and H69 cell line, respectively (A: <30 nM, B: <50 nM, C: <100 nM, D: <200 nM, E: <400 nM).

[4] = system: NCI-H69 cell line; assay: Cell viability assay for NCI-H69 cell line (EZ-Cytox); details: Homo sapiens, NCI-H69, 120 h; H69 cells, 5 days, 3000 nM to 0.46 nM
Experimental: as §1, §2, §3, §4, §5, §6, §7

T1 sequence (P53350 whole entry): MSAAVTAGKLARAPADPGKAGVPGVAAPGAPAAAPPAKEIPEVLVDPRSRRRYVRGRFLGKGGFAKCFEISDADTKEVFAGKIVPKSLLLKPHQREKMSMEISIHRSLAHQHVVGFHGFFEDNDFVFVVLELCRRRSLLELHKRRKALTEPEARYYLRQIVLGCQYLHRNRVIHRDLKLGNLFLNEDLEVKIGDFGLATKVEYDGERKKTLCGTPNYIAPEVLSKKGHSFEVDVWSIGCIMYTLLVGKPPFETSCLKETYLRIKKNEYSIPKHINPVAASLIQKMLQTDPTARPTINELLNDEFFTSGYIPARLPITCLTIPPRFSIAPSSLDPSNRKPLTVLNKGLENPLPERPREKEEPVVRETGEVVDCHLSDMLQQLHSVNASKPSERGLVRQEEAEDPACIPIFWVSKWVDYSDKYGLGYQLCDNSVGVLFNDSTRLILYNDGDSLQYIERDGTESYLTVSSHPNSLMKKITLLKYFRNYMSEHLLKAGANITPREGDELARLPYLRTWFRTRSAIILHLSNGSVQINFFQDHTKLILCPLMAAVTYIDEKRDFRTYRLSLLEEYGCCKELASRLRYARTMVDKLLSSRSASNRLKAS

Compound: CCN1CC(F)(F)C(=O)N(C)c2cnc(Nc3ccc(C(=O)NN4CCC(CCN5CCN(c6ccc(NC7CCC(=O)NC7=O)cc6F)CC5)CC4)cc3OC)nc21 (stereo not shown) [Compound 28, N(4-(2-(4-(4-((2,6-dioxopiperidin-3-yl)amino)-2-fluorophenyl)piperazin-1-yl)ethyl)piperidin-1-yl)-4-((9-ethyl-7,7-difluoro-5-methyl-6-oxo-6,7,8,9-tetrahydro-5H-pyrimido[4,5-b][1,4]diazepin-2-yl)amino)-3-methoxybenzamide]
Activity: ratio of the luminescence value of compound treatment group to DMSO treatment group [1]: +++ (+++: <0.3)
IC50 [2]: > 10000 nM
IC50 [3]: < 30 nM
IC50 [4]: < 30 nM

Compound: COc1cc(C(=O)NC2CCN(CCC3CCN(c4cc(F)c(NC5CCC(=O)NC5=O)cc4F)CC3)CC2)ccc1Nc1ncc2c(n1)N(C1CCCC1)CC(F)(F)C(=O)N2C (stereo not shown) [Compound 63, 4-((9-cyclopentyl-7,7-difluoro-5-methyl-6-oxo-6,7,8,9-tetrahydro-5H-pyrimido[4,5-b][1,4]diazepin-2-yl)amino)-N-(1-(2-(1-(4-((2,6-dioxopiperidin-3-yl)amino)-2,5-difluorophenyl)piperidin-4-yl)ethyl)piperidin-4-yl)-3-methoxybenzamide]
Activity: ratio of the luminescence value of compound treatment group to DMSO treatment group [1]: +++ (+++: <0.3)
IC50 [2]: > 10000 nM
IC50 [3]: < 30 nM
IC50 [4]: < 50 nM

Compound: COc1cc(C(=O)NN2CCC(CCN3CCN(c4cc(F)c(NC5CCC(=O)NC5=O)cc4F)CC3)CC2)c(F)cc1Nc1ncc2c(n1)N(C(C)C)CC(F)(F)C(=O)N2C (stereo not shown) [Compound 60, 4-((7,7-difluoro-9-isopropyl-5-methyl-6-oxo-6,7,8,9-tetrahydro-5H-pyrimido[4,5-b][1,4]diazepin-2-yl)amino)-N-(4-(2-(4-(4-((2,6-dioxopiperidin-3-yl)amino)-2,5-difluorophenyl)piperazin-1-yl)ethyl)piperidin-1-yl)-2-fluoro-5-methoxybenzamide]
Activity: ratio of the luminescence value of compound treatment group to DMSO treatment group [1]: ++ (++: <0.5)
IC50 [2]: > 10000 nM
IC50 [3]: < 50 nM
IC50 [4]: < 50 nM

Compound: COc1cc(C(=O)NC2CC3(CCN(CC4CCN(c5ccc(C6CCC(=O)NC6=O)cc5F)CC4)CC3)C2)ccc1Nc1ncc2c(n1)N(C)CC(F)(F)C(=O)N2C (stereo not shown) [Compound 5, 4-((7,7-difluoro-5,9-dimethyl-6-oxo-6,7,8,9-tetrahydro-5H-pyrimido[4,5-b][1,4]diazepin-2-yl)amino)-N-(7-((1-(4-(2,6-dioxopiperidin-3-yl)-2-fluorophenyl)piperidin-4-yl)methyl)-7-azaspiro[3.5]nonan-2-yl)-3-methoxybenzamide]
Activity: ratio of the luminescence value of compound treatment group to DMSO treatment group [1]: ++ (++: <0.5)
IC50 [2]: > 10000 nM
IC50 [3]: < 100 nM
IC50 [4]: < 100 nM

Compound: COc1cc(C(=O)NC2CC3(CCN(CC4CCN(c5ccc(NC6CCC(=O)NC6=O)c(F)c5)CC4)CC3)C2)ccc1Nc1ncc2c(n1)N(C1CCCC1)CC(F)(F)C(=O)N2C (stereo not shown) [Compound 36, 4-((9-cyclopentyl-7,7-difluoro-5-methyl-6-oxo-6,7,8,9-tetrahydro-5H-pyrimido[4,5-b][1,4]diazepin-2-yl)amino)-N-(7-((1-(4-((2,6-dioxopiperidin-3-yl)amino)-3-fluorophenyl)piperidin-4-yl)methyl)-7-azaspiro[3.5]nonan-2-yl)-3-methoxybenzamide]
Activity: ratio of the luminescence value of compound treatment group to DMSO treatment group [1]: +++ (+++: <0.3)
IC50 [2]: > 10000 nM
IC50 [3]: < 30 nM
IC50 [4]: < 50 nM

Compound: COc1cc(C(=O)NC2CC3(CCN(CC4CCN(c5cnc(C6CCC(=O)NC6=O)cc5C)CC4)CC3)C2)ccc1Nc1ncc2c(n1)N(C1CCCC1)CC(F)(F)C(=O)N2C (stereo not shown) [Compound 17, 4-((9-cyclopentyl-7,7-difluoro-5-methyl-6-oxo-6,7,8,9-tetrahydro-5H-pyrimido[4,5-b][1,4]diazepin-2-yl)amino)-N-(7-((1-(6-(2,6-dioxopiperidin-3-yl)-4-methylpyridin-3-yl)piperidin-4-yl)methyl)-7-azaspiro[3.5]nonan-2-yl)-3-methoxybenzamide]
Activity: ratio of the luminescence value of compound treatment group to DMSO treatment group [1]: +++ (+++: <0.3)
IC50 [2]: > 10000 nM
IC50 [3]: < 30 nM
IC50 [4]: < 30 nM

More lines, main results first:

Activity: ratio of the luminescence value of compound treatment group to DMSO treatment group [1]: ++ (++: <0.5)
Compound: COc1cc(C(=O)NC2CCN(CCN3CCN(c4cc(F)c(NC5CCC(=O)NC5=O)cc4F)CC3)CC2)ncc1Nc1ncc2c(n1)N(C1CCCC1)CC(F)(F)C(=O)N2C (stereo not shown) [Compound 68, 5-((9-cyclopentyl-7,7-difluoro-5-methyl-6-oxo-6,7,8,9-tetrahydro-5H-pyrimido[4,5-b][1,4]diazepin-2-yl)amino)-N-(1-(2-(4-(4-((2,6-dioxopiperidin-3-yl)amino)-2,5-difluorophenyl)piperazin-1-yl)ethyl)piperidin-4-yl)-4-methoxypicolinamide]
IC50 [2]: > 10000 nM
IC50 [3]: < 50 nM
IC50 [4]: < 100 nM

Activity: ratio of the luminescence value of compound treatment group to DMSO treatment group [1]: ++ (++: <0.5)
Compound: COc1cc(C(=O)NN2CCC(N3CC4(CCN(c5cccc(C6CCC(=O)NC6=O)c5)CC4)C3)CC2)ccc1Nc1ncc2c(n1)N(C1CCCC1)CC(F)(F)C(=O)N2C (stereo not shown) [Compound 1, 4-((9-cyclopentyl-7,7-difluoro-5-methyl-6-oxo-6,7,8,9-tetrahydro-5H-pyrimido[4,5-b][1,4]diazepin-2-yl)amino)-N-(4-(7-(3-(2,6-dioxopiperidin-3-yl)phenyl)-2,7-diazaspiro[3.5]nonan-2-yl)piperidin-1-yl)-3-methoxybenzamide]
IC50 [2]: > 10000 nM
IC50 [3]: < 30 nM
IC50 [4]: < 50 nM

Activity: ratio of the luminescence value of compound treatment group to DMSO treatment group [1]: ++ (++: <0.5)
Compound: COc1cc(C(=O)N[C@H]2CC[C@H](N(C)CC3CCN(c4cccc(N5CCC(=O)NC5=O)c4)CC3)CC2)ccc1Nc1ncc2c(n1)N(C1CCCC1)CC(F)(F)C(=O)N2C [Compound 8, 4-((9-cyclopentyl-7,7-difluoro-5-methyl-6-oxo-6,7,8,9-tetrahydro-5H-pyrimido[4,5-b][1,4]diazepin-2-yl)amino)-N-((1r,4r)-4-(((1-(3-(2,4-dioxotetrahydropyrimidin-1 (2H)-yl)phenyl)piperidin-4-yl)methyl)(methyl)amino)cyclohexyl)-3-methoxybenzamide]
IC50 [2]: > 10000 nM
IC50 [3]: < 30 nM
IC50 [4]: < 30 nM

Activity: ratio of the luminescence value of compound treatment group to DMSO treatment group [1]: +++ (+++: <0.3)
Compound: CCN1CC(F)(F)C(=O)N(C)c2cnc(Nc3ccc(C(=O)NC4CCC(N(C)CC5CCN(c6cnc(C7CCC(=O)NC7=O)cc6C)CC5)CC4)cc3OC)nc21 (stereo not shown) [Compound 13, N((1r,4r)-4-(((1-(6-(2,6-dioxopiperidin-3-yl)-4-methylpyridin-3-yl)piperidin-4-yl)methyl)(methyl)amino)cyclohexyl)-4-((9-ethyl-7,7-difluoro-5-methyl-6-oxo-6,7,8,9-tetrahydro-5H-pyrimido[4,5-b][1,4]diazepin-2-yl)amino)-3-methoxybenzamide]
IC50 [2]: > 10000 nM
IC50 [3]: < 30 nM
IC50 [4]: < 30 nM
